# Assays:
# [1] = molecular target: Epidermal growth factor receptor (Homo sapiens, UniProt P00533, L858R); assay: Inhibition of recombinant human GST-tagged EGFR L858R mutant expressed in baculovirus expression system using Tyr 04 as substrate incubated for 1 hr by Z'-LYTE assay
# [2] = system: NCI-H1975; assay: Antiproliferative activity against human NCI-H1975 cells expressing EGFR T790M/L858R mutant assessed as reduction in cell viability incubated for 72 hrs by MTT assay; format: functional, cell-based; conditions: nci-h1975
# [3] = system: PC-9; assay: Antiproliferative activity against human PC9 cells expressing EGFR L858R mutant assessed as reduction in cell viability incubated for 72 hrs by MTT assay; format: functional, cell-based; conditions: pc-9
# [4] = system: NCI-H292; assay: Antiproliferative activity against human NCI-H292 cells expressing EGFR assessed as reduction in cell viability incubated for 72 hrs by MTT assay; format: functional, cell-based; conditions: nci-h292
# [5] = Cytotoxicity against human HEK293A cells expressing EGFR assessed as reduction in cell viability incubated for 72 hrs by MTT assay; format: cell-based, HEK293-A; conditions: hek293-a
# [6] = Selectivity index, ratio of IC50 for human HK2 cells to IC50 for human NCI-H1975 cells expressing EGFR T790M/L858R mutant
# [7] = Selectivity index, ratio of IC50 for human BJ cells to IC50 for human NCI-H1975 cells expressing EGFR T790M/L858R mutant; format: toxicity
# [8] = Selectivity index, ratio of IC50 for human HEK293A cells to IC50 for human NCI-H1975 cells expressing EGFR T790M/L858R mutant; format: toxicity
# [9] = system: NCI-H1975; assay: Inhibition of cell migration in human NCI-H1975 cells at 5 nM incubated for 24 hrs by phase contrast microscopy relative to control; format: functional; conditions: NCI-H1975, 24 h
# [10] = system: NCI-H1975; assay: Inhibition of cell migration in human NCI-H1975 cells at 25 nM incubated for 24 hrs by phase contrast microscopy relative to control; format: functional; conditions: Homo sapiens, NCI-H1975, 24 h
# [11] = system: NCI-H1975; assay: Induction of apoptosis in human NCI-H1975 cells assessed as necrotic cells at 5 nM incubated for 24 hrs by propidium iodide and annexin-V FITC staining based flow cytometry (reference value: 0.01 %); format: functional
# [12] = system: NCI-H1975; assay: Induction of apoptosis in human NCI-H1975 cells assessed as viable cells at 25 nM incubated for 24 hrs by propidium iodide and annexin-V FITC staining based flow cytometry (reference value: 98.82 %); format: functional; conditions: NCI-H1975, 24 h, read-out: Activity
# [13] = system: NCI-H1975; assay: Induction of apoptosis in human NCI-H1975 cells assessed as early apoptotic cells at 25 nM incubated for 24 hrs by propidium iodide and annexin-V FITC staining based flow cytometry (reference value: 0.94 %); format: functional
# [14] = system: NCI-H1975; assay: Induction of apoptosis in human NCI-H1975 cells assessed as viable cells at 50 nM incubated for 24 hrs by propidium iodide and annexin-V FITC staining based flow cytometry (reference value: 98.82 %); format: functional; conditions: NCI-H1975, 24 h, read-out: Activity
# [15] = system: NCI-H1975; assay: Induction of apoptosis in human NCI-H1975 cells assessed as early apoptotic cells at 50 nM incubated for 24 hrs by propidium iodide and annexin-V FITC staining based flow cytometry (reference value: 0.94 %); format: functional
# [16] = system: NCI-H1975; assay: Induction of apoptosis in human NCI-H1975 cells assessed as necrotic cells at 50 nM incubated for 24 hrs by propidium iodide and annexin-V FITC staining based flow cytometry (reference value: 0.01 %); format: functional
# [17] = system: NCI-H1975; assay: Induction of apoptosis in human NCI-H1975 cells assessed as necrotic cells at 5 nM incubated for 48 hrs by propidium iodide and annexin-V FITC staining based flow cytometry (reference value: 0.01 %); format: functional
# [18] = system: NCI-H1975; assay: Induction of apoptosis in human NCI-H1975 cells assessed as viable cells at 25 nM incubated for 48 hrs by propidium iodide and annexin-V FITC staining based flow cytometry (reference value: 99.05 %); format: functional; conditions: NCI-H1975, 48 h, read-out: Activity
# [19] = system: NCI-H1975; assay: Induction of apoptosis in human NCI-H1975 cells assessed as early apoptotic cells at 25 nM incubated for 48 hrs by propidium iodide and annexin-V FITC staining based flow cytometry (reference value: 0.95 %); format: functional
# [20] = system: NCI-H1975; assay: Induction of apoptosis in human NCI-H1975 cells assessed as late apoptotic cells at 25 nM incubated for 48 hrs by propidium iodide and annexin-V FITC staining based flow cytometry (reference value: 0.23 %); format: functional
# [21] = system: NCI-H1975; assay: Induction of apoptosis in human NCI-H1975 cells assessed as viable cells at 50 nM incubated for 48 hrs by propidium iodide and annexin-V FITC staining based flow cytometry (reference value: 99.05 %); format: functional; conditions: NCI-H1975, 48 h, read-out: Activity
# [22] = system: NCI-H1975; assay: Induction of apoptosis in human NCI-H1975 cells assessed as early apoptotic cells at 50 nM incubated for 48 hrs by propidium iodide and annexin-V FITC staining based flow cytometry (reference value: 0.95 %); format: functional
# [23] = system: NCI-H1975; assay: Induction of apoptosis in human NCI-H1975 cells assessed as necrotic cells at 50 nM incubated for 48 hrs by propidium iodide and annexin-V FITC staining based flow cytometry (reference value: 0.01 %); format: functional
# [24] = system: NCI-H1975; assay: Induction of apoptosis in human NCI-H1975 cells assessed as late apoptotic cells at 5 nM incubated for 72 hrs by propidium iodide and annexin-V FITC staining based flow cytometry (reference value: 0.01 %); format: functional
# [25] = system: NCI-H1975; assay: Induction of apoptosis in human NCI-H1975 cells assessed as necrotic cells at 5 nM incubated for 72 hrs by propidium iodide and annexin-V FITC staining based flow cytometry (reference value: 0.01 %); format: functional
# [26] = system: NCI-H1975; assay: Induction of apoptosis in human NCI-H1975 cells assessed as early apoptotic cells at 25 nM incubated for 72 hrs by propidium iodide and annexin-V FITC staining based flow cytometry (reference value: 2.43 %); format: functional
# [27] = system: NCI-H1975; assay: Induction of apoptosis in human NCI-H1975 cells assessed as late apoptotic cells at 25 nM incubated for 72 hrs by propidium iodide and annexin-V FITC staining based flow cytometry (reference value: 0.01 %); format: functional
# [28] = system: NCI-H1975; assay: Induction of apoptosis in human NCI-H1975 cells assessed as necrotic cells at 25 nM incubated for 72 hrs by propidium iodide and annexin-V FITC staining based flow cytometry (reference value: 0.01 %); format: functional
# [29] = system: NCI-H1975; assay: Induction of apoptosis in human NCI-H1975 cells assessed as late apoptotic cells at 50 nM incubated for 72 hrs by propidium iodide and annexin-V FITC staining based flow cytometry (reference value: 0.01 %); format: functional
# [30] = Half life in ICR mouse at 10 mg/kg, po; format: ADME, organism-based; conditions: in vivo
# [31] = Tmax in ICR mouse at 10 mg/kg, po; format: ADME, organism-based; conditions: in vivo
# [32] = AUC (0 to t) in ICR mouse at 10 mg/kg, po; format: ADME, organism-based; conditions: in vivo
# [33] = MRT (0 to infinity) in ICR mouse at 10 mg/kg, po; format: ADME, organism-based; conditions: in vivo
# [34] = Oral bioavailability in ICR mouse at 10 mg/kg; format: ADME, organism-based; conditions: in vivo
# [35] = Half life in ICR mouse at 5 mg/kg, iv; format: ADME, organism-based; conditions: in vivo
# [36] = Cmax in ICR mouse at 5 mg/kg, iv; format: ADME, organism-based; parameters: dose 5 mg/kg, route intravenous; conditions: in vivo
# [37] = MRT (0 to t) in ICR mouse at 5 mg/kg, iv; format: ADME, organism-based; conditions: in vivo
# Sequence of Epidermal growth factor receptor (P00533 25-1210 L858R limits assumed): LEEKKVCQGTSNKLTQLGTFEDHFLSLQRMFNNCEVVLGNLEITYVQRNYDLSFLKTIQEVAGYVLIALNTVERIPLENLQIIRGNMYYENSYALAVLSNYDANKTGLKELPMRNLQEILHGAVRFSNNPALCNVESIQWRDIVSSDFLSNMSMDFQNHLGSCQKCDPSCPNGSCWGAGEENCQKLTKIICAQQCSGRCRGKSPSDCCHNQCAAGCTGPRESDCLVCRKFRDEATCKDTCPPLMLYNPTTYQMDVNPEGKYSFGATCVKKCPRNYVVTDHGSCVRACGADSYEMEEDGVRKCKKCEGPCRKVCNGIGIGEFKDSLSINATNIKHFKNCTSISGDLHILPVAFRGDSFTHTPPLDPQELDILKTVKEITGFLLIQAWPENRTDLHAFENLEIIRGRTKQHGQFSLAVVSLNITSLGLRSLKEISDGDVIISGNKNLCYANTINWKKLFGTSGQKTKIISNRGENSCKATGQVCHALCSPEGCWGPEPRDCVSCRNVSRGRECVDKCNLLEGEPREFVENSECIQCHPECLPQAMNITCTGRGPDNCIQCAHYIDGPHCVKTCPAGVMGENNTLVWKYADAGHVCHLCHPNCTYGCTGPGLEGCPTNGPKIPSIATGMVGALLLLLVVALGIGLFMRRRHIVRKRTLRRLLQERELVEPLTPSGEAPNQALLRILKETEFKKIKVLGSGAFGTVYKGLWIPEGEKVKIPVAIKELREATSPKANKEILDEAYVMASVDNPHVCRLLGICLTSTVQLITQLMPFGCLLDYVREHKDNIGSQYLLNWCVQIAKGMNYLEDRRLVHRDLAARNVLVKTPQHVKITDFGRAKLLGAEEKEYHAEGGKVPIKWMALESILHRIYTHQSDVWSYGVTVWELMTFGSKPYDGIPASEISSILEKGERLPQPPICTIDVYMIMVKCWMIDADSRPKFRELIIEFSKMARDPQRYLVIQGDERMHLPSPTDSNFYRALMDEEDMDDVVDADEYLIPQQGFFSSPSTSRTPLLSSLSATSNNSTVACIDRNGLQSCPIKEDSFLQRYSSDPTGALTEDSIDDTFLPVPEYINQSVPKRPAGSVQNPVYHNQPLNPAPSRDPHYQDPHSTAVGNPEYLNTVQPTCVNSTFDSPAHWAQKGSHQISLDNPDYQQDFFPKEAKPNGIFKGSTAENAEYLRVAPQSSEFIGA
smiles,measurement,setting,value
"C=CC(=O)Nc1cc(Nc2nccc(-c3cn(C)c4ccccc34)n2)c(OC)cc1[S+]([O-])CCN(C)C (single isomer, unassigned; (-))",IC50,[1],4 nM
same,IC50,[2],10 nM
same,IC50,[3],15 nM
same,IC50,[4],1090 nM
same,IC50,[5],1920 nM
same,Ratio IC50,[6],>1000
same,Ratio IC50,[7],> 1000
same,Ratio IC50,[8],192
same,inhibition at 0.005 µM,[9],45.1%
same,inhibition at 0.025 µM,[10],69.7%
same,Activity,[11],0.32%
same,viability at 0.025 µM,[12],76.8%
same,Activity,[13],22.23%
same,viability at 0.05 µM,[14],65.6%
same,Activity,[15],31.61%
same,Activity,[16],0.45%
same,Activity,[17],0.05%
same,viability at 0.025 µM,[18],44.7%
same,Activity,[19],51.86%
same,Activity,[20],2.73%
same,viability at 0.05 µM,[21],13.7%
same,Activity,[22],56.02%
same,Activity,[23],0.71%
same,Activity,[24],18.71%
same,Activity,[25],1.2%
same,Activity,[26],43.25%
same,Activity,[27],21.68%
same,Activity,[28],1.85%
same,Activity,[29],30.74%
same,half-life,[30],1.73 h
same,Tmax,[31],0.5 h
same,AUC(0-t),[32],1910 ng·h/mL
same,MRT inf,[33],2.68 h
same,bioavailability,[34],73.7%
same,half-life,[35],1.12 h
same,Cmax,[36],1610 ng/mL
same,MRT last,[37],1.15 h
